Measurements: the supplement of paper PMC11061612

What was measured:
AZD1775 = compound: C=CCn1c(=O)c2cnc(Nc3ccc(N4CCN(C)CC4)cc3)nc2n1-c1cccc(C(C)(C)O)n1 [AZD1775]; conditions: max 3 µM
Outline: (§1)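 Cancer cell lines were seeded into 1536-well plates in 7.5 μl medium (DMEM/F12 or RPMI, 10% FBS), held 24 hours at 37°C and 5% CO2, and dosed for 72 hours with final DMSO typically 0.2%. Luminescence from CellTiter-Glo 2.0, scaled between blank-well and DMSO-well means, served as viability. The single-agent IC50 was obtained from dose-response fits with a non-linear mixed effects model, each fit being a two-parameter logistic curve.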

Trametinib = compound: CC(=O)Nc1cccc(-n2c(=O)n(C3CC3)c(=O)c3c(Nc4ccc(I)cc4F)n(C)c(=O)c(C)c32)c1 [Trametinib]; conditions: max 1 µM
Outline: as §1

AZD7648 = compound: Cc1cc2ncnn2cc1Nc1ncc2c(n1)n(C1CCOCC1)c(=O)n2C [AZD7648]; conditions: max 10 µM
Outline: as §1

5-Fluorouracil = compound: O=c1[nH]cc(F)c(=O)[nH]1 [5-Fluorouracil]; conditions: max 20 µM
Outline: as §1

Gemcitabine = compound: Nc1ccn([C@@H]2O[C@H](CO)[C@@H](O)C2(F)F)c(=O)n1 [Gemcitabine]; conditions: max 0.3 µM
Outline: as §1

Etoposide = compound: COc1cc([C@@H]2c3cc4c(cc3[C@@H](O[C@@H]3O[C@@H]5CO[C@@H](C)O[C@H]5[C@H](O)[C@H]3O)[C@H]3COC(=O)[C@H]23)OCO4)cc(OC)c1O [Etoposide]; conditions: max 10 µM
Outline: as §1

AZD5363 = compound: C1CN(CCC1(C(=O)N[C@@H](CCO)C2=CC=C(C=C2)Cl)N)C3=NC=NC4=C3C=CN4 [AZD5363]; conditions: max 10 µM
Outline: as §1

Taselisib = compound: Cc1nc(-c2cn3c(n2)-c2ccc(-c4cnn(C(C)(C)C(N)=O)c4)cc2OCC3)n(C(C)C)n1 [Taselisib]; conditions: max 10 µM
Outline: as §1

Palbociclib = compound: CC(=O)c1c(C)c2cnc(Nc3ccc(N4CCNCC4)cn3)nc2n(C2CCCC2)c1=O [Palbociclib]; conditions: max 10 µM
Outline: as §1

SN-38 = compound: CCc1c2c(nc3ccc(O)cc13)-c1cc3c(c(=O)n1C2)COC(=O)[C@]3(O)CC [SN-38]; conditions: max 0.3 µM
Outline: as §1

SG3199 = compound: CC1=CN2[C@@H](C1)C=NC3=CC(=C(C=C3C2=O)OC)OCCCCCOC4=C(C=C5C(=C4)N=C[C@@H]6CC(=CN6C5=O)C)OC [SG3199]; conditions: max 0.001 µM
Outline: as §1

Gefitinib = compound: COc1cc2ncnc(Nc3ccc(F)c(Cl)c3)c2cc1OCCCN1CCOCC1 [Gefitinib]; conditions: max 10 µM
Outline: as §1

AZD8186 = compound: C[C@@H](Nc1cc(F)cc(F)c1)c1cc(C(=O)N(C)C)cc2c(=O)cc(N3CCOCC3)oc12 [AZD8186]; conditions: max 10 µM
Outline: as §1

Dasatinib = compound: CC1=C(C(=CC=C1)Cl)NC(=O)C2=CN=C(S2)NC3=CC(=NC(=N3)C)N4CCN(CC4)CCO [Dasatinib]; conditions: max 2 µM
Outline: as §1

Doxorubicin = compound: COc1cccc2c1C(=O)c1c(O)c3c(c(O)c1C2=O)C[C@@](O)(C(=O)CO)C[C@@H]3O[C@H]1C[C@H](N)[C@H](O)[C@H](C)O1 [Doxorubicin]; conditions: max 1 µM
Outline: as §1

SRA737 = compound: N#Cc1cnc(Nc2cc(NC[C@H]3CNCCO3)c(C(F)(F)F)cn2)cn1 [SRA737]; conditions: max 10 µM
Outline: as §1

AZD5991 = compound: Cc1c2c(nn1C)CSCc1cc(n(C)n1)CSc1cc(c3ccccc3c1)OCCCc1c(C(=O)O)n(C)c3c-2c(Cl)ccc13 [AZD5991]; conditions: max 1 µM
Outline: as §1

Crizotinib = compound: C[C@@H](Oc1cc(-c2cnn(C3CCNCC3)c2)cnc1N)c1c(Cl)ccc(F)c1Cl [Crizotinib]; conditions: max 10 µM
Outline: as §1

MK-2206 = compound: NC1(c2ccc(-c3nc4ccn5c(=O)[nH]nc5c4cc3-c3ccccc3)cc2)CCC1 [MK-2206]; conditions: max 10 µM
Outline: as §1

AZD2811 = compound: CCN(CCO)CCCOc1ccc2c(Nc3cc(CC(=O)Nc4cccc(F)c4)[nH]n3)ncnc2c1 [AZD2811]; conditions: max 1 µM
Outline: as §1

AZD5153 = compound: COc1nnc2ccc(N3CCC(c4ccc(OCCN5CCN(C)C(=O)[C@H]5C)cc4)CC3)nn12 [AZD5153]; conditions: max 1 µM
Outline: as §1

AZD6738 = compound: C[C@@H]1COCCN1C2=NC(=NC(=C2)C3(CC3)[S@](=N)(=O)C)C4=C5C=CNC5=NC=C4 [AZD6738]; conditions: max 10 µM
Outline: as §1

[1] = compound: O=C(Nc1ccc2[nH]nc(-c3ccncc3)c2c1)[C@@H]1CCN(CC(=O)N2CCN(c3ccc(-c4ncccn4)cc3)CC2)C1; conditions: max 5 µM
Outline: as §1

AZD1390 = compound: CC(C)n1c(=O)n(C)c2cnc3cc(F)c(-c4ccc(OCCCN5CCCCC5)nc4)cc3c21 [AZD1390]; conditions: max 0.3 µM
Outline: as §1

AZD4320 = compound: CN(CC[C@H](CSC1=CC=CC=C1)NC2=C(C=C(C=C2)S(=O)(=O)NC(=O)C3=CC=C(C=C3)N4CCC(CC4)[C@H](C5=CC=CC=C5C6=CC=C(C=C6)Cl)O)S(=O)(=O)C(F)(F)F)CCO [AZD4320]; conditions: max 1 µM
Outline: as §1

Lapatinib = compound: CS(=O)(=O)CCNCc1ccc(-c2ccc3ncnc(Nc4ccc(OCc5cccc(F)c5)c(Cl)c4)c3c2)o1 [Lapatinib]; conditions: max 10 µM
Outline: as §1

Savolitinib = compound: C[C@@H](c1ccc2nccn2c1)n1nnc2ncc(-c3cnn(C)c3)nc21 [Savolitinib]; conditions: max 1 µM
Outline: as §1

AZD0156 = compound: CN(C)CCCOc1ccc(-c2ccc3ncc4c(c3c2)n(C2CCOCC2)c(=O)n4C)cn1 [AZD0156]; conditions: max 3 µM
Outline: as §1

Olaparib = compound: O=C(c1cc(Cc2n[nH]c(=O)c3ccccc23)ccc1F)N1CCN(C(=O)C2CC2)CC1 [Olaparib]; conditions: max 10 µM
Outline: as §1

Carboplatin = compound: C1CC(C1)(C(=O)[O-])C(=O)[O-].N.N.[Pt+2] [Carboplatin]; conditions: max 10 µM
Outline: as §1

Alisertib = compound: COc1cc(Nc2ncc3c(n2)-c2ccc(Cl)cc2C(c2c(F)cccc2OC)=NC3)ccc1C(=O)O [Alisertib]; conditions: max 10 µM
Outline: as §1

Paclitaxel = compound: CC(=O)O[C@H]1C(=O)[C@@]2(C)[C@H]([C@H](OC(=O)c3ccccc3)[C@]3(O)C[C@H](OC(=O)[C@H](O)[C@@H](NC(=O)c4ccccc4)c4ccccc4)C(C)=C1C3(C)C)[C@]1(OC(C)=O)CO[C@@H]1C[C@@H]2O [Paclitaxel]; conditions: max 3 µM
Outline: as §1

Venetoclax = compound: CC1(C)CCC(CN2CCN(c3ccc(C(=O)NS(=O)(=O)c4ccc(NCC5CCOCC5)c([N+](=O)[O-])c4)c(Oc4cnc5[nH]ccc5c4)c3)CC2)=C(c2ccc(Cl)cc2)C1 [Venetoclax]; conditions: max 1 µM
Outline: as §1

Selumetinib = compound: Cn1cnc2c(F)c(Nc3ccc(Br)cc3Cl)c(C(=O)NOCCO)cc21 [Selumetinib]; conditions: max 10 µM
Outline: as §1

Prexasertib = compound: COc1cccc(OCCCN)c1-c1cc(Nc2cnc(C#N)cn2)n[nH]1 [Prexasertib]; conditions: max 1 µM
Outline: as §1

Row | Cell Line | IC50, cell viability 72 h (AZD1775) | IC50, cell viability 72 h (Trametinib) | IC50, cell viability 72 h (AZD7648) | IC50, cell viability 72 h (5-Fluorouracil) | IC50, cell viability 72 h (Gemcitabine) | IC50, cell viability 72 h (Etoposide) | IC50, cell viability 72 h (AZD5363) | IC50, cell viability 72 h (Taselisib) | IC50, cell viability 72 h (Palbociclib) | IC50, cell viability 72 h (SN-38) | IC50, cell viability 72 h (SG3199) | IC50, cell viability 72 h (Gefitinib) | IC50, cell viability 72 h (AZD8186) | IC50, cell viability 72 h (Dasatinib) | IC50, cell viability 72 h (Doxorubicin) | IC50, cell viability 72 h (SRA737) | IC50, cell viability 72 h (AZD5991) | IC50, cell viability 72 h (Crizotinib) | IC50, cell viability 72 h (MK-2206) | IC50, cell viability 72 h (AZD2811) | IC50, cell viability 72 h (AZD5153) | IC50, cell viability 72 h (AZD6738) | IC50, cell viability 72 h [1] | IC50, cell viability 72 h (AZD1390) | IC50, cell viability 72 h (AZD4320) | IC50, cell viability 72 h (Lapatinib) | IC50, cell viability 72 h (Savolitinib) | IC50, cell viability 72 h (AZD0156) | IC50, cell viability 72 h (Olaparib) | IC50, cell viability 72 h (Carboplatin) | IC50, cell viability 72 h (Alisertib) | IC50, cell viability 72 h (Paclitaxel) | IC50, cell viability 72 h (Venetoclax) | IC50, cell viability 72 h (Selumetinib) | IC50, cell viability 72 h (Prexasertib)
1 | KYAE-1 (Esophageal Adenocarcinoma) | > 3 µM | > 1 µM | > 10 µM | > 20 µM | > 0.3 µM | > 10 µM | > 10 µM | 1.88 µM | > 10 µM | > 0.3 µM | > 0.001 µM | 4.58 µM | > 10 µM | > 2 µM | > 1 µM | > 10 µM | > 1 µM | > 10 µM | > 10 µM | > 1 µM | > 1 µM | > 10 µM | > 5 µM | > 0.3 µM | > 1 µM | 3.34 µM | > 1 µM | > 3 µM | > 10 µM | > 10 µM | > 10 µM | > 3 µM | > 1 µM | > 10 µM | 0.829 µM
2 | LNZTA3WT4 (Low Grade Glioma) | 0.624 µM | > 1 µM | > 10 µM | > 20 µM | 0.0997 µM | > 10 µM | > 10 µM | > 10 µM | > 10 µM | 0.269 µM | > 0.001 µM | > 10 µM | > 10 µM | > 2 µM | > 1 µM | 4.63 µM | > 1 µM | > 10 µM | > 10 µM | > 1 µM | > 1 µM | 4.5 µM | > 5 µM | > 0.3 µM | > 1 µM | > 10 µM | > 1 µM | > 3 µM | > 10 µM | > 10 µM | > 10 µM | 0.141 µM | > 1 µM | > 10 µM | 0.0187 µM
3 | LOXIMVI (Melanoma) | 1.37 µM | 0.0178 µM | > 10 µM | > 20 µM | 0.0589 µM | > 10 µM | > 10 µM | 2.17 µM | 9.91 µM | 0.0289 µM | > 0.001 µM | > 10 µM | > 10 µM | 0.135 µM | 0.294 µM | > 10 µM | > 1 µM | 6.35 µM | > 10 µM | > 1 µM | 0.111 µM | 3.27 µM | 0.145 µM | > 0.3 µM | > 1 µM | > 10 µM | > 1 µM | > 3 µM | > 10 µM | > 10 µM | 5.35 µM | 0.0268 µM | > 1 µM | 1.5 µM | 0.0896 µM
4 | MPP-89 (Mesothelioma) | 1.55 µM | > 1 µM | > 10 µM | > 20 µM | > 0.3 µM | > 10 µM | > 10 µM | > 10 µM | > 10 µM | 0.172 µM | > 0.001 µM | > 10 µM | > 10 µM | 0.558 µM | > 1 µM | > 10 µM | > 1 µM | > 10 µM | > 10 µM | > 1 µM | > 1 µM | > 10 µM | > 5 µM | > 0.3 µM | > 1 µM | > 10 µM | > 1 µM | > 3 µM | > 10 µM | > 10 µM | 9.37 µM | 0.842 µM | > 1 µM | > 10 µM | 0.0672 µM
5 | NCI-H524 (Small Cell Lung Carcinoma) | 0.974 µM | > 1 µM | > 10 µM | > 20 µM | 0.189 µM | > 10 µM | > 10 µM | 8.08 µM | > 10 µM | 0.133 µM | > 0.001 µM | > 10 µM | > 10 µM | > 2 µM | > 1 µM | > 10 µM | > 1 µM | 2.55 µM | > 10 µM | 0.0223 µM | 0.278 µM | 4.37 µM | > 5 µM | > 0.3 µM | 0.415 µM | > 10 µM | > 1 µM | > 3 µM | > 10 µM | > 10 µM | 0.0305 µM | 0.00326 µM | > 1 µM | > 10 µM | 0.0236 µM
